Like-named read-outs stand apart in the source and are kept apart here.
Legend:
Assay type in all cases: biochemical
[1] = target: Recombinant human JAK3 catalytic domain (Homo sapiens (Human), UniProt P52333); assay: JAK3 kinase assay (Z'-LYTE, Tyr 6 Peptide)
Protocol: (§1) JAK1/2/3 kinase assay are performed in vitro using Kit-Tyr 6 Peptide (Invitrogen, Cat. No. PV4122). TYK2 kinase assay are performed in vitro using Z′-LYTE™ Kinase Assay Kit-Tyr 3 Peptide (Invitrogen, Cat. No. PV3192). […] All compounds are initially tested at 8 different concentrations (1 μM down to 0.0003 μM) using a 1:3 serial dilution scheme.

[2] = target: Recombinant human JAK2 catalytic domain (Homo sapiens (Human), UniProt O60674); assay: JAK2 kinase assay (Z'-LYTE, Tyr 6 Peptide); settings: read-out: IC50 in JAK2 kinase assay
Protocol: as §1

[3] = target: Recombinant human JAK1 catalytic domain (Homo sapiens (Human), UniProt P23458); assay: JAK1 kinase assay (Z'-LYTE, Tyr 6 Peptide)
Protocol: as §1

[4] = read-out: IC50 in JAK3 kinase assay
[5] = read-out: IC50 in JAK1 kinase assay

Chain of Recombinant human JAK1 catalytic domain (P23458 875-1153): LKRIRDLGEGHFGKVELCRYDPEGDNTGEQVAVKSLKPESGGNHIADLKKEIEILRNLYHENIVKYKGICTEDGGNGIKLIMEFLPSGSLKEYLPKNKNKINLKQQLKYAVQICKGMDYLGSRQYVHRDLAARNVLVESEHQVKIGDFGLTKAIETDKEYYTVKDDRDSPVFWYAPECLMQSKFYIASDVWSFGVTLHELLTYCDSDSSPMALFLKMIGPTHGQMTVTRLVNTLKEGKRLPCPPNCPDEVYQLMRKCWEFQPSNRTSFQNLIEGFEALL
Chain of Recombinant human JAK3 catalytic domain (P52333 822-1111): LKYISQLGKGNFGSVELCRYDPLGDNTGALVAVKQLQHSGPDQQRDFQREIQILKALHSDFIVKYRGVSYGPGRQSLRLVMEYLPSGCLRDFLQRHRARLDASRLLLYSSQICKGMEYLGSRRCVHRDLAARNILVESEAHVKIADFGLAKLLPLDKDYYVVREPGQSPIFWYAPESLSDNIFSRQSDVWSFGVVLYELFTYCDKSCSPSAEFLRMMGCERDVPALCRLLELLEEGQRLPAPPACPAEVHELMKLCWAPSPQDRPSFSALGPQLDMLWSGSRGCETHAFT
Chain of Recombinant human JAK2 catalytic domain (O60674 849-1124): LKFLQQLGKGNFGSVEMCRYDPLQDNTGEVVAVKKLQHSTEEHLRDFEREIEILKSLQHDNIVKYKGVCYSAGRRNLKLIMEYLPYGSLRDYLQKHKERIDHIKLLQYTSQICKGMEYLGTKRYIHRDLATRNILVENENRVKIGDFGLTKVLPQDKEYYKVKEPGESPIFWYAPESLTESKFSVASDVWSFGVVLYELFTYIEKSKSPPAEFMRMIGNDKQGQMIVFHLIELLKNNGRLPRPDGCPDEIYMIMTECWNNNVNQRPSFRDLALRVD

## Cc1cc(N(C)[C@@H]2CCN(c3ncnc4[nH]ccc34)C2)ncc1[N+](=O)[O-] [Compound 77]
[1]; [4]
  IC50: 100 to 1000 nM
[2]
  IC50: 100 to 1000 nM
[3]; [5]
  IC50: 1 to 100 nM

## CN(c1ccc(C(=O)Nc2nccs2)cn1)[C@@H]1CCN(c2ncnc3[nH]ccc23)C1 [Compound 199]
[1]; read-out: JAK3 (enzyme, IC50)
  IC50: 522 nM
[3]; read-out: JAK1 (enzyme, IC50)
  IC50: 14 nM

## CN(c1ccc(S(=O)(=O)NC2CC2)cn1)[C@@H]1CCN(c2ncnc3[nH]ccc23)C1 [Compound 236]
[1]; [4]
  IC50: 1 to 100 nM
[2]
  IC50: 1 to 100 nM
[3]; [5]
  IC50: 1 to 100 nM

## C#CCN(c1ccc(C#N)cn1)[C@@H]1CCN(c2ncnc3[nH]ccc23)C1 [Compound 128]
[2]
  IC50: 1 to 100 nM
[3]; [5]
  IC50: 1 to 100 nM

## CN(c1ccc(-c2nn[nH]n2)cc1F)[C@@H]1CCN(c2ncnc3[nH]ccc23)C1 [Compound 161]
[2]
  IC50: 1 to 100 nM
[3]; [5]
  IC50: 1 to 100 nM

## CN(c1cc2cn[nH]c2cn1)[C@@H]1CCN(c2ncnc3[nH]ccc23)C1 [Compound 125, (R)—N-(1-(7H-pyrrolo[2,3-d]pyrimidin-4-yl)pyrrolidin-3-yl)-N-methyl-1H-pyrazolo[3,4-c]pyridin-5-amine]
[2]
  IC50: 1 to 100 nM
[3]; [5]
  IC50: 1 to 100 nM

## CN(c1ccncn1)[C@@H]1CCN(c2ncnc3[nH]ccc23)C1 [Compound 154, (R)—N-(1-(7H-pyrrolo[2,3-d]pyrimidin-4-yl)pyrrolidin-3-yl)-N-methylpyrimidin-4-amine]
[2]
  IC50: 100 to 1000 nM
[3]; [5]
  IC50: 1 to 100 nM

## N#Cc1ccc(N(CC2CC2)[C@@H]2CCN(c3ncnc4[nH]ccc34)C2)nc1 [Compound 124]
[2]
  IC50: 1 to 100 nM
[3]; [5]
  IC50: 1 to 100 nM

## CN(c1ccnc(C#N)c1)[C@@H]1CCN(c2ncnc3[nH]ccc23)C1 [Compound 121]
[1]; [4]
  IC50: 1 to 100 nM
[2]
  IC50: 1 to 100 nM
[3]; [5]
  IC50: 1 to 100 nM

## CN(c1ccc(C(F)(F)F)cn1)[C@@H]1CCN(c2ncnc3[nH]ccc23)C1 [Compound 123]
[2]
  IC50: 1 to 100 nM
[3]; [5]
  IC50: 1 to 100 nM

## COc1cc2ncnc(N(C)[C@@H]3CCN(c4ncnc5[nH]ccc45)C3)c2cc1OC [Compound 86]
[1]; [4]
  IC50: 100 to 1000 nM
[2]
  IC50: 1 to 100 nM
[3]; [5]
  IC50: 1 to 100 nM

## COc1nc(N(C)[C@@H]2CCN(c3ncnc4[nH]ccc34)C2)ccc1C#N [Compound 42]
[1]; [4]
  IC50: 1 to 100 nM
[2]
  IC50: 1 to 100 nM
[3]; [5]
  IC50: 1 to 100 nM

## CN(c1ccc(C(=O)NC[C@H](O)c2ccccc2)cc1F)[C@@H]1CCN(c2ncnc3[nH]ccc23)C1 [Compound 202]
[2]
  IC50: 1 to 100 nM
[3]; [5]
  IC50: 1 to 100 nM

## CN(c1ccc(S(=O)(=O)NC2CCOCC2)cn1)[C@@H]1CCN(c2ncnc3[nH]ccc23)C1 [Compound 259]
[2]
  IC50: 100 to 1000 nM
[3]; [5]
  IC50: 1 to 100 nM

## CN(C(=O)Nc1ccc(C(F)(F)F)cc1)[C@@H]1CCN(c2ncnc3[nH]ccc23)C1 [Compound 30]
[2]
  IC50: 100 to 1000 nM
[3]; [5]
  IC50: 1 to 100 nM

## CN(c1ccc(C#N)cc1)[C@@H]1CCN(c2ncnc3[nH]ccc23)C1 [Compound 104]
[1]; [4]
  IC50: 100 to 1000 nM
[2]
  IC50: 1 to 100 nM
[3]; [5]
  IC50: 1 to 100 nM

## CN(c1ccc(Cl)cn1)[C@@H]1CCN(c2ncnc3[nH]ccc23)C1 [Compound 67]
[1]; [4]
  IC50: 1 to 100 nM
[2]
  IC50: 1 to 100 nM
[3]; [5]
  IC50: 1 to 100 nM

## CNS(=O)(=O)c1ccc(N(C)[C@@H]2CCN(c3ncnc4[nH]ccc34)C2)nc1 [Compound 239]
[2]
  IC50: 100 to 1000 nM
[3]; [5]
  IC50: 1 to 100 nM
